Experimental data reported in US12497460B2, “Anti-MSR1 antibodies and methods of use thereof” (REGENERON PHARMACEUTICALS, INC., priority 2018, dated 2025).
pEC50: −log10 of the molar value.

Assays:
LXR (THP1/LXR-Luc cells) = assay: Cell based LXR responsive luciferase reporter assay (Examples 34A, 34C); conditions: Homo sapiens, payload compounds, differentiated THP-1/LXR-Luc cells (Table 30); for maximal fold induction: read-out: S/N
Protocol: The activity of certain LXR agonist payloads described herein were assessed in a cell based LXR responsive luciferase reporter assay. To generate the assay cell line, an LXR regulated luciferase reporter gene (Cignal Lenti LXR Reporter (luc) kit (Qiagen, Cat #CLS-001L)) was transduced into THP1 cells and the cells were selected for two weeks in puromycin. The lentivirus expresses the firefly luciferase gene under the control of a minimal CMV promoter and tandem repeats of the LXR transcriptional response element. The resulting cell line is referred to as THP1/LXR-Luc cells. For the assay, THP1/LXR-Luc cells were seeded onto 96 well plates at 40,000 cells/well in media containing RPMI supplemented with 10% FBS and penicillin/streptomycin and were then differentiated with 200 nM Phorbol Myristate Acetate (PMA) for 3 days. The media was subsequently removed and replaced with 80 uL of fresh media without PMA. Three-fold serial dilutions of free payloads were prepared in 100% DMSO, transferred to fresh media, and 20 uL were added to the cells at a final constant DMSO concentration of 0.2% and free payloads at final concentrations ranging from 100 nM to 0.015 nM. The last well in the plate served as blank control containing only the media and 0.2% DMSO (untreated well) and was plotted as a continuation of the 3-fold serial dilution. Forty-eight hours later, luciferase activity was determined after the addition of One-Glo™ reagent (Promega, Cat #E6130) to each well. Relative light units (RLUs) were measured on a Victor luminometer (PerkinElmer) and EC50 values were determined using a four-parameter logistic equation over a 10-point dose response curve (GraphPad Prism). The signal to noise (S/N) was determined by taking the ratio of the highest RLU on the dose response curve to the RLU in the untreated wells.
Several linker-payloads (LPs) were derived from the payload compounds in Table C and conjugated to an anti-MSR1 antibody (H1H21234N-N297Q) or a non-binding control using the techniques described in the previous example. The resulting anti-MSR1 LXR agonist antibody drug conjugates (ADCs) were tested for activity in the THP1/LXRLuc reporter assay as described above for the payload compounds.

[1] = test system: S. aureus MRSA strain NRS384 in humanized MSR1 mice; assay: S. aureus IV disseminated infection mouse model, kidney burden; assay type: in vivo
Protocol: To test the efficacy of an anti-MSR1 Ab-antibiotic ncADC of the invention in vivo, an intravenous disseminated infection model was utilized. S. aureus MSRA strain NRS384 was grown overnight in trypic soy broth (TSB) and sub-cultured to mid-logarithmic phase. Bacteria were then washed twice with PBS and resuspended in PBS at a concentration of 1.2×10^8 cfu/mL. […] From one to three days post infection, mice were treated with 110 mg/kg vancomycin subcutaneously twice daily where indicated. […] Mice were monitored for weight loss and body conditioning score throughout the infection. At four days post infection, mice were euthanized and the S. aureus kidney burden was quantified by tissue homogenization followed by enumeration of colony forming units through serial dilution in PBS and plating onto trypicase soy agar plates.

[2] = vancomycin treatment alone, limit of detection 250 cfu

Row | Structure (SMILES) | pEC50 (LXR (THP1/LXR-Luc cells)) | maximal fold induction (LXR (THP1/LXR-Luc cells)) | reduction of S. aureus kidney burden ([1]; 110 mg/kg s.c. twice daily, days 1 to 3 post infection, day 4) | mice with S. aureus levels below the LOD (in words) ([1]; vancomycin alone, 110 mg/kg s.c. twice daily) | # of mice with S. aureus below the limit of detection [1, 2] | Average cfu/kidney pair [1, 2] [cfu/kidney pair]
1 | C[C@]1(C(=O)NC(=O)[C@@]2(C)CCC[C@]3(C)c4cc(NC(=O)[C@@H](N)Cc5cnc[nH]5)ccc4CC[C@@H]23)CCC[C@]2(C)c3cc(N)ccc3CC[C@@H]12 [P9B, (1S,4aS,10aR)-6-amino-N-((1S,4aS,10aR)-6-((S)-2-amino-3-(1H-imidazol-4-yl)propanamido)-1,4a-dimethyl-1,2,3,4,4a,9,10,10a-octahydrophenanthrene-1-carbonyl)-1,4a-dimethyl-1,2,3,4,4a,9,10,10a-octahydrophenanthrene-1-carboxamide] | 9.63 | 12.8 | – | – | – | –
2 | CN[C@H](CC(C)C)C(=O)N[C@H]1C(=O)N[C@@H](CC(N)=O)C(=O)N[C@H]2C(=O)N[C@H]3C(=O)N[C@H](C(=O)N[C@H](C(=O)O)c4cc(O)cc(O)c4-c4cc3ccc4O)[C@H](O)c3ccc(c(Cl)c3)Oc3cc2cc(c3O[C@@H]2O[C@H](CO)[C@@H](O)[C@H](O)[C@H]2O[C@H]2C[C@](C)(N)[C@H](O)[C@H](C)O2)Oc2ccc(cc2Cl)[C@H]1O [vancomycin] | – | – | approximately 2 logs | none of the mice had levels of S. aureus reduced below the limit of detection | 0/6 | 2.07E+06
3 | C[C@]1(C(=O)NC(=O)[C@@]2(C)CCC[C@]3(C)c4cc(NC(=O)[C@@H](N)CC(=O)O)ccc4CC[C@@H]23)CCC[C@]2(C)c3cc(N)ccc3CC[C@@H]12 [P7B, (S)-3-Amino-4-((4bS,8S,8aR)-8-((1S,4aS,10aR)-6-amino-1,4a-dimethyl-1,2,3,4,4a,9,10,10a-octahydrophenanthrene-1-carbonylcarbamoyl)-4b,8-dimethyl-4b,5,6,7,8,8a,9,10-octahydrophenanthren-3-ylamino)-4-oxobutanoic acid] | 9.60 | 12.5 | – | – | – | –
4 | C[C@]1(C(=O)NC(=O)[C@@]2(C)CCC[C@]3(C)c4cc(N)ccc4CC[C@@H]23)CCC[C@]2(C)c3cc(N)ccc3CC[C@@H]12 [P2B, (1S,4aS,10aR)-6-Amino-N-((1S,4aS,10aR)-6-amino-1,4a-dimethyl-1,2,3,4,4a,9,10,10a-octahydrophenanthrene-1-carbonyl)-1,4a-dimethyl-1,2,3,4,4a,9,10,10a-octahydrophenanthrene-1-carboxamide] | 9.53 | 11.3 | – | – | – | –
5 | C[C@]1(C(=O)NC(=O)[C@@]2(C)CCC[C@]3(C)c4cc(NC(=O)[C@@H](N)CCCCN)ccc4CC[C@@H]23)CCC[C@]2(C)c3cc(N)ccc3CC[C@@H]12 [P6B, (1S,4aS,10aR)-6-Amino-N-((1S,4aS,10aR)-6-((S)-2,6-diaminohexanamido)-1,4a-dimethyl-1,2,3,4,4a,9,10,10a-octahydrophenanthrene-1-carbonyl)-1,4a-dimethyl-1,2,3,4,4a,9,10,10a-octahydrophenanthrene-1-carboxamide] | 8.48 | 10.9 | – | – | – | –
6 | C[C@]1(C(=O)NC(=O)[C@@]2(C)CCC[C@]3(C)c4cc(NC(=O)[C@@H](N)CO)ccc4CC[C@@H]23)CCC[C@]2(C)c3cc(N)ccc3CC[C@@H]12 [P5B, (1S,4aS,10aR)-6-Amino-N-((1S,4aS,10aR)-6-((S)-2-amino-3-hydroxypropanamido)-1,4a-dimethyl-1,2,3,4,4a,9,10,10a-octahydrophenanthrene-1-carbonyl)-1,4a-dimethyl-1,2,3,4,4a,9,10,10a-octahydrophenanthrene-1-carboxamide] | 9.76 | 13.8 | – | – | – | –
7 | C[C@]1(C(=O)NC(=O)[C@@]2(C)CCC[C@]3(C)c4cc(NC(=O)CN)ccc4CC[C@@H]23)CCC[C@]2(C)c3cc(N)ccc3CC[C@@H]12 [P4B, (1S,4aS,10aR)-N-[(1S,4aS,10aR)-6-(2-Aminoacetamido)-1,4a-dimethyl-1,2,3,4,4a,9,10,10a-octahydrophenanthrene-1-carbonyl]-6-amino-1,4a-dimethyl-1,2,3,4,4a,9,10,10a-octahydrophenanthrene-1-carboxamide] | 9.90 | 10.4 | – | – | – | –
8 | C[C@H](NC(=O)[C@@H](N)CCC(=O)O)C(=O)Nc1ccc2c(c1)[C@@]1(C)CCC[C@](C)(C(=O)NC(=O)[C@@]3(C)CCC[C@]4(C)c5cc(N)ccc5CC[C@@H]34)[C@@H]1CC2 [P12B, (S)-4-Amino-5-((S)-1-((4bS,8S,8aR)-8-((1S,4aS,10aR)-6-amino-1,4a-dimethyl-1,2,3,4,4a,9,10,10a-octahydrophenanthrene-1-carbonylcarbamoyl)-4b,8-dimethyl-4b,5,6,7,8,8a,9,10-octahydrophenanthren-3-ylamino)-1-oxopropan-2-ylamino)-5-oxopentanoic acid] | 9.53 | 11.4 | – | – | – | –

Further compounds by rising pEC50 (LXR (THP1/LXR-Luc cells)), results first:

Row | pEC50 (LXR (THP1/LXR-Luc cells)) | Structure (SMILES) | maximal fold induction (LXR (THP1/LXR-Luc cells)) | reduction of S. aureus kidney burden ([1]; 110 mg/kg s.c. twice daily, days 1 to 3 post infection, day 4) | mice with S. aureus levels below the LOD (in words) ([1]; vancomycin alone, 110 mg/kg s.c. twice daily) | # of mice with S. aureus below the limit of detection [1, 2] | Average cfu/kidney pair [1, 2] [cfu/kidney pair]
9 | 8.45 | C[C@]1(C(=O)NC(=O)[C@@]2(C)CCC[C@]3(C)c4cc(NC(=O)[C@@H](N)CCC(=O)O)ccc4CC[C@@H]23)CCC[C@]2(C)c3cc(N)ccc3CC[C@@H]12 [P8B, (S)-4-Amino-5-((4bS,8S,8aR)-8-((1S,4aS,10aR)-6-Amino-1,4a-dimethyl-1,2,3,4,4a,9,10,10a-octahydrophenanthrene-1-carbonylcarbamoyl)-4b,8-dimethyl-4b,5,6,7,8,8a,9,10-octahydrophenanthren-3-ylamino)-5-oxopentanoic acid] | 10.8 | – | – | – | –
10 | 8.94 | C[C@]1(C(=O)NC(=O)[C@@]2(C)CCC[C@]3(C)c4cc(O)ccc4CC[C@@H]23)CCC[C@]2(C)c3cc(N)ccc3CC[C@@H]12 [P1, (1S,4aS,10aR)-N-[(1S,4aS,10aR)-6-Amino-1,4a-dimethyl-1,2,3,4,4a,9,10,10a-octahydrophenanthrene-1-carbonyl]-6-hydroxy-1,4a-dimethyl-1,2,3,4,4a,9,10,10a-octahydrophenanthrene-1-carboxamide] | 11.4 | – | – | – | –
11 | 9.65 | C[C@]1(C(=O)NC(=O)[C@@]2(C)CCC[C@]3(C)c4cc(NC(=O)[C@@H](N)CCC(=O)O)ccc4CC[C@@H]23)CCC[C@]2(C)c3cc(NC(=O)CN)ccc3CC[C@@H]12 [P10B, (S)-4-Amino-5-((4bS,8S,8aR)-8-((1S,4aS,10aR)-6-(2-aminoacetamido)-1,4a-dimethyl-1,2,3,4,4a,9,10,10a-octahydrophenanthrene-1-carbonylcarbamoyl)-4b,8-dimethyl-4b,5,6,7,8,8a,9,10-octahydrophenanthren-3-ylamino)-5-oxopentanoic acid] | 11.1 | – | – | – | –
12 | 9.95 | C[C@]1(C(=O)NC(=O)[C@@]2(C)CCC[C@]3(C)c4cc(NC(=O)[C@@H](N)CCC(=O)O)ccc4CC[C@@H]23)CCC[C@]2(C)c3cc(NC(=O)[C@@H](N)CCC(=O)O)ccc3CC[C@@H]12 [P11B, (4S,4'S)-5,5′-(4bS,4b'S,8S,8aR,8'S,8a′R)-8,8′-(Azanediylbis(oxomethylene))bis(4b,8-dimethyl-4b,5,6,7,8,8a,9,10-octahydrophenanthrene-8,3-diyl)bis(azanediyl)bis(4-amino-5-oxopentanoic acid)] | 10.7 | – | – | – | –
